# Reference: ChEMBL document CHEMBL5705888, “Substrate specificity and inhibitors of LRRK2, a protein kinase mutated in Parkinson's disease” (Biochem J, 2009)
# How the values were obtained:
# Homo sapiens [1] = organism: Homo sapiens; test: Inhibition of CDK2/cyclin A (unknown origin) at 1 uM incubated for 30 mins in presence of [gamma-33P]ATP by multidrop micro reagent based assay relative to control; values are per cent of control
# [2] = biological target: SRSF protein kinase 1 (Homo sapiens) (UniProt Q96SB4); test: Inhibition of SRPK1 (unknown origin) at 1 uM incubated for 30 mins in presence of [gamma-33P]ATP by multidrop micro reagent based assay relative to control; values are per cent of control
# [3] = biological target: Receptor tyrosine-protein kinase erbB-4 (Homo sapiens) (UniProt Q15303); test: Inhibition of HER4 (unknown origin) at 10 uM incubated for 30 mins in presence of [gamma-33P]ATP by multidrop micro reagent based assay relative to control; values are per cent of control
# [4] = biological target: T1, Serine/threonine-protein kinase 3 (Homo sapiens) (UniProt Q13188); test: Inhibition of MST2 (unknown origin) at 10 uM incubated for 30 mins in presence of [gamma-33P]ATP by multidrop micro reagent based assay relative to control; values are per cent of control
# T1 sequence (whole entry): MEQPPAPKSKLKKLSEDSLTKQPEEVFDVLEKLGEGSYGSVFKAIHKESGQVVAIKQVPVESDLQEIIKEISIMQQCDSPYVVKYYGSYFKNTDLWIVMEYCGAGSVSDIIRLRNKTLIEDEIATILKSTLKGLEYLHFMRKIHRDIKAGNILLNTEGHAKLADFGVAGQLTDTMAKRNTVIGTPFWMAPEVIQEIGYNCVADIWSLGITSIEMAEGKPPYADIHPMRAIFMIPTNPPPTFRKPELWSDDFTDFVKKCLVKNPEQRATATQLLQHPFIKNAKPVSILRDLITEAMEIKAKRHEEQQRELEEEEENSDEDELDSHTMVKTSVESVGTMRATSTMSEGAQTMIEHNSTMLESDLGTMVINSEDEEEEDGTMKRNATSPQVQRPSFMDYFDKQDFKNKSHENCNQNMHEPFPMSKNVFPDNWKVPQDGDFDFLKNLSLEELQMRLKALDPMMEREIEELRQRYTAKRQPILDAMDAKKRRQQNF
# [5] = biological target: T2, Serine/threonine-protein kinase STK11 (Homo sapiens) (UniProt Q15831); test: Inhibition of LKB1 (unknown origin) at 10 uM incubated for 30 mins in presence of [gamma-33P]ATP by multidrop micro reagent based assay relative to control; values are per cent of control
# T2 sequence (whole entry): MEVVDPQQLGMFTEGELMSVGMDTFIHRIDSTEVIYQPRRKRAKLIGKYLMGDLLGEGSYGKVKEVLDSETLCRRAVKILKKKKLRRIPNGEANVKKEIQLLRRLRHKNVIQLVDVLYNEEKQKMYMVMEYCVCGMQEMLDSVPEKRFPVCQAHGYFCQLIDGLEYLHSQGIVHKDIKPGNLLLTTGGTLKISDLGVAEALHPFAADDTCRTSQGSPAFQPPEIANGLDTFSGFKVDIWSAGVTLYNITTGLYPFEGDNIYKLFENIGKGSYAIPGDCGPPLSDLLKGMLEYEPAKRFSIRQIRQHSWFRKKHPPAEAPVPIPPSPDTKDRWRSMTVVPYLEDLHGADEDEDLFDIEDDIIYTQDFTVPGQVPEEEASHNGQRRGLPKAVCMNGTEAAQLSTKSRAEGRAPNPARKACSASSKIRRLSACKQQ
# [6] = biological target: Maternal embryonic leucine zipper kinase (Homo sapiens) (UniProt Q14680); test: Inhibition of MELK (unknown origin) at 10 uM incubated for 30 mins in presence of [gamma-33P]ATP by multidrop micro reagent based assay relative to control; values are per cent of control
# [7] = biological target: T3, Interleukin-1 receptor-associated kinase 4 (Homo sapiens) (UniProt Q9NWZ3); test: Inhibition of IRAK4 (unknown origin) at 10 uM incubated for 30 mins in presence of [gamma-33P]ATP by multidrop micro reagent based assay relative to control; values are per cent of control
# T3 sequence (whole entry): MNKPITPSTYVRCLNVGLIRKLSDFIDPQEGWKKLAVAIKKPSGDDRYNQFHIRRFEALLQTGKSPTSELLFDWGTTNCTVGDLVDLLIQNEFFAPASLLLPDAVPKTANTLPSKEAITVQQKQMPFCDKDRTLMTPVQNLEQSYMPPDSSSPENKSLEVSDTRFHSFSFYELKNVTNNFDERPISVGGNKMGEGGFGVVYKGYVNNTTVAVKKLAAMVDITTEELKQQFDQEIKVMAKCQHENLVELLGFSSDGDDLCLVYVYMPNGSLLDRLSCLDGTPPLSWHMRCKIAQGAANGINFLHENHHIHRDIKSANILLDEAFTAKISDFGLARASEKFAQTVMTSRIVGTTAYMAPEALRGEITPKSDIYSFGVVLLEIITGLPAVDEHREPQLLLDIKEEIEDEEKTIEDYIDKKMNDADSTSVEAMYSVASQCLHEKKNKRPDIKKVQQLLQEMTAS
# [8] = biological target: Serine/threonine-protein kinase PAK 5 (Homo sapiens) (UniProt Q9P286); test: Inhibition of PAK5 (unknown origin) at 10 uM incubated for 30 mins in presence of [gamma-33P]ATP by multidrop micro reagent based assay relative to control; values are per cent of control
# [9] = biological target: Serine/threonine-protein kinase pim-3 (Homo sapiens) (UniProt Q86V86); test: Inhibition of PIM3 (unknown origin) at 10 uM incubated for 30 mins in presence of [gamma-33P]ATP by multidrop micro reagent based assay relative to control; values are per cent of control
# Homo sapiens [10] = organism: Homo sapiens; test: Residual activity of VEGFR (unknown origin) at 10 uM incubated for 30 mins in presence of [gamma-33P]ATP by multidrop micro reagent based assay relative to control
# [11] = biological target: Proto-oncogene tyrosine-protein kinase Src (Homo sapiens) (UniProt P12931); test: Inhibition of Src (unknown origin) at 10 uM incubated for 30 mins in presence of [gamma-33P]ATP by multidrop micro reagent based assay relative to control; values are per cent of control
# Sequence of Proto-oncogene tyrosine-protein kinase Src (Homo sapiens) (P12931 2-536 limits assumed): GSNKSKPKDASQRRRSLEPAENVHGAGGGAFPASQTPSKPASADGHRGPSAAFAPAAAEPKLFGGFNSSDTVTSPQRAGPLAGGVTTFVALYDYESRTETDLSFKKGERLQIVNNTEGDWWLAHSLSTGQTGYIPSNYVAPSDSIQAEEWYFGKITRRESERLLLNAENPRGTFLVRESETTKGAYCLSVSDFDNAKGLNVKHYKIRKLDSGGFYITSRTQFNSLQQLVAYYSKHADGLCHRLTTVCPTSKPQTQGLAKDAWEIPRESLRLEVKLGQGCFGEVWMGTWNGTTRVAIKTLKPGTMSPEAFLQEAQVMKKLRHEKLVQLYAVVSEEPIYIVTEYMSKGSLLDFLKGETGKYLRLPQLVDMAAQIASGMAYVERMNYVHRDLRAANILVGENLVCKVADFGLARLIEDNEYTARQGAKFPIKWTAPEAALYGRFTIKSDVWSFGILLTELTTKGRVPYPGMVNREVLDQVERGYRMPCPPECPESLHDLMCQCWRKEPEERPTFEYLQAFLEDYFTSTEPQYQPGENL
# Sequence of Serine/threonine-protein kinase PAK 5 (Homo sapiens) (Q9P286 whole entry, looked up): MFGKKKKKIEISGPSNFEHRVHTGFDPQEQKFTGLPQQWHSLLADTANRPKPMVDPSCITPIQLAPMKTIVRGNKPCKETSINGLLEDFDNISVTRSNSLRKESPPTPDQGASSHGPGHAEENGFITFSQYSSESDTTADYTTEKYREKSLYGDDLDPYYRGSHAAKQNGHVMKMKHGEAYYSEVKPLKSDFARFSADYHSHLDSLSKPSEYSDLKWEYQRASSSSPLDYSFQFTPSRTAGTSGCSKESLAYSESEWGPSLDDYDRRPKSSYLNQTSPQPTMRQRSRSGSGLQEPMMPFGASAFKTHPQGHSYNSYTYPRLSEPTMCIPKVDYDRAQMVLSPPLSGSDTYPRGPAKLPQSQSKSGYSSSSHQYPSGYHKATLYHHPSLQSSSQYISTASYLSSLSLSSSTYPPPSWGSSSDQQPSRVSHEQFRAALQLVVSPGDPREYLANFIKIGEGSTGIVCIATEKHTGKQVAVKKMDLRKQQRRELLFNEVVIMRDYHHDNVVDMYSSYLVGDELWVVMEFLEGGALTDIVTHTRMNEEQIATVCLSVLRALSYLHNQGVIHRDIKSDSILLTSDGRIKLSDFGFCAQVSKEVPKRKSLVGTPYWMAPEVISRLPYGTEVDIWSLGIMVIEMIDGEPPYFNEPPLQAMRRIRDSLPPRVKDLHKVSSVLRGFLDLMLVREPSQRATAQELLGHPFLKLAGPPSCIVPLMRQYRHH
# Sequence of SRSF protein kinase 1 (Homo sapiens) (Q96SB4 whole entry): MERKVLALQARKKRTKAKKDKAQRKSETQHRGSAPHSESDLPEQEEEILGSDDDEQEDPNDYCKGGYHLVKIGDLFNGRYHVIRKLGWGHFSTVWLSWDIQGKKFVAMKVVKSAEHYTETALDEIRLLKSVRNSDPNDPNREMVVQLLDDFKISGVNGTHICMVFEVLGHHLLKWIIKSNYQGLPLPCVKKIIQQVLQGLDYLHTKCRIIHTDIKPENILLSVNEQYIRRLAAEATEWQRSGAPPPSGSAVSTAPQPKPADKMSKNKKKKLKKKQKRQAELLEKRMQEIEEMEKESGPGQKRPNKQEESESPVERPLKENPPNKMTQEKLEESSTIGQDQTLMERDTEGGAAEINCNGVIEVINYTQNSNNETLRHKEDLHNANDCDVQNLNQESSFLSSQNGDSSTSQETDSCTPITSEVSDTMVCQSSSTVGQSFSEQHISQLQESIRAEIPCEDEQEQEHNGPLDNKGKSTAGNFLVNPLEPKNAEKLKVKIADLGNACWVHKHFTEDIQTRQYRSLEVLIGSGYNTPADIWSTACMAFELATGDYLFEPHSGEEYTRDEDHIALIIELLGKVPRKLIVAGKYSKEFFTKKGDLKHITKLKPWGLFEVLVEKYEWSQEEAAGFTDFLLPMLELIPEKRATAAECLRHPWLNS
# Sequence of Receptor tyrosine-protein kinase erbB-4 (Homo sapiens) (Q15303 whole entry): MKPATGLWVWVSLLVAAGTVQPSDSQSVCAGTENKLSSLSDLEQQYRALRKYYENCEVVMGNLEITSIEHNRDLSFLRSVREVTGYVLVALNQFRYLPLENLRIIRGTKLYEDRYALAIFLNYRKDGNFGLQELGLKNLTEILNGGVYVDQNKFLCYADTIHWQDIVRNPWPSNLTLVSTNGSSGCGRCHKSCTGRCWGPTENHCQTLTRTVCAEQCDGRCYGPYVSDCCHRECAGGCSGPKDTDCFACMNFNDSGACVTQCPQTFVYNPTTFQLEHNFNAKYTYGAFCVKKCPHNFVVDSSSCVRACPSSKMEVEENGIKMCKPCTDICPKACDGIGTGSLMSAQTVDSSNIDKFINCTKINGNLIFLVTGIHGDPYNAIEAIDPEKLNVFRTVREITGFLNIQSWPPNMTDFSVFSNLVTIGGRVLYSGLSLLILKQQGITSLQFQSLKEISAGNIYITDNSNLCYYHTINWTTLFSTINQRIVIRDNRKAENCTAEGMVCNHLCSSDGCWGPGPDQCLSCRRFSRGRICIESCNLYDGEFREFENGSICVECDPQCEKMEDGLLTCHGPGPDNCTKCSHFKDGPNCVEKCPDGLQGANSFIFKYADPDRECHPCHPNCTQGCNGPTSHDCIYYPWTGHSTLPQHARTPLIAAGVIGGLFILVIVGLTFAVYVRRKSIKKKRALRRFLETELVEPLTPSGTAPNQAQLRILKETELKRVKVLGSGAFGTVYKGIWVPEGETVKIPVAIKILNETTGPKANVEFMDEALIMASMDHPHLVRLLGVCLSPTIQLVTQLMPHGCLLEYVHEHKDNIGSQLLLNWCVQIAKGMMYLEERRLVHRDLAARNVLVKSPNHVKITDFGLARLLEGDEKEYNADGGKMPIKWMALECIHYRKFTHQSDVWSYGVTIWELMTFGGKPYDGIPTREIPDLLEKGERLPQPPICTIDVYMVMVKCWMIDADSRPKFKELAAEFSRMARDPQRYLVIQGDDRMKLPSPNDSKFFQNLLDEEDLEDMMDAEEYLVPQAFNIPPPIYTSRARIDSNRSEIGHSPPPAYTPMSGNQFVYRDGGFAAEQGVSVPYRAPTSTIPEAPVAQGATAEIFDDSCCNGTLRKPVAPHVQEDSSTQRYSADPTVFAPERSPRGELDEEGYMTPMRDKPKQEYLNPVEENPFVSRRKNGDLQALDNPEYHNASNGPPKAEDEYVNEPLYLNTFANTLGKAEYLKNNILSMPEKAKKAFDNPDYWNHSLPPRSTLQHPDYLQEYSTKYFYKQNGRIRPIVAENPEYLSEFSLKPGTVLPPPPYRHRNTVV
# Sequence of Maternal embryonic leucine zipper kinase (Homo sapiens) (Q14680 whole entry, looked up): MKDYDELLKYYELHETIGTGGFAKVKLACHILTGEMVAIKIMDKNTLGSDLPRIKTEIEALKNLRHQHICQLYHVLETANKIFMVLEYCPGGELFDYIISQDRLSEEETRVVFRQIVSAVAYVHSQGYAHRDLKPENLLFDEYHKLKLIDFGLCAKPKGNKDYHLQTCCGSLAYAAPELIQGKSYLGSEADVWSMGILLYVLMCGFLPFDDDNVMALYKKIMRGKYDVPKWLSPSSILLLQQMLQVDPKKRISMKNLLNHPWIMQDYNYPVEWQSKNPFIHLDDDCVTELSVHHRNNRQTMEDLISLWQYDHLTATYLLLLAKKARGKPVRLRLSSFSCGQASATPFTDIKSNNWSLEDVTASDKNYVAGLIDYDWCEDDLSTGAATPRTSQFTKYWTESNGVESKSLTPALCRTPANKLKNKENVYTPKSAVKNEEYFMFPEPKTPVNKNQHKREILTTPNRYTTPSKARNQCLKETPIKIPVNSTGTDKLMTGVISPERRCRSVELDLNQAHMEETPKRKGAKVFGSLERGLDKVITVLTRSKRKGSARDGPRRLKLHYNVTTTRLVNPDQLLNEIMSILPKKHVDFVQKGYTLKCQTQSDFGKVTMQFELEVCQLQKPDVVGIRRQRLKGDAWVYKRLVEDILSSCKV
Compound,residual activity (Homo sapiens [1]) [%],residual activity [2] [%],residual activity [3] [%],residual activity [4] [%],residual activity [5] [%],residual activity [6] [%],residual activity [7] [%],residual activity [8] [%],residual activity [9] [%],residual activity (Homo sapiens [10]) [%],residual activity [11] [%]
CC1=C(C(=O)Nc2cc3cn[nH]c3cc2F)C(c2ccc(C(F)(F)F)cc2)CC(=O)N1 (stereo not given),49,71,–,–,–,–,–,–,–,–,–
Cc1cncc2cccc(S(=O)(=O)N3CCCNC[C@@H]3C)c12,–,125,–,–,–,–,–,–,–,–,–
CCn1c(-c2nonc2N)nc2cnc(Oc3cccc(NC(=O)c4ccc(OCCN5CCOCC5)cc4)c3)cc21 [GSK-269962A],50,–,–,–,–,–,–,–,–,–,–
C[C@@H](N)[C@H]1CC[C@H](C(=O)Nc2ccncc2)CC1,–,–,69,61,52,79,101,101,87,105,90
O=S(=O)(c1cccc2cnccc12)N1CCCNCC1 [FASUDIL],–,–,129,51,33,–,69,112,–,70,120
